Drawing on a melting point compilation (Tetko et al.), this text covers melting point for 75 molecules.

As for `CC(CO)C1CCC2C3CCC4=CC(=O)C=CC4(C)C3CCC12C` (stereo not given), the melting point (in general, the temperature, or range, at which the solid turns liquid) lay in the range of 178 to 184 °C. To `CC(C)(Oc1ccc(Cl)cc1)C(=O)OCCCOC(=O)C(C)(C)Oc1ccc(Cl)cc1` belongs 52 °C; to `CCCCc1ccc(C(=O)O)nc1`, 97 °C. The same measure for `COc1cc(NC(=S)NN)cc(OC)c1OC`: 178 to 179 °C.

The molecule `CC(=O)OC(C(=O)Cl)c1ccccc1` (stereo not given) had a melting point of 36 °C. Turning to `Cc1c(C(=O)CCl)sc2ccc(Cl)cc12`, the melting point lay in the range of 158 to 160 °C. Molecule `CC(=O)NC(CCC(=O)O)C(=O)O` (stereo not given) had a melting point of 199 °C. `CSC(=CC(=C(C#N)C#N)c1ccc(Br)cc1)SC` yielded a melting point of 138 to 142 °C.

`FC(F)(F)COc1ccc(OCC(F)(F)F)cc1` registered a melting point of 76 °C. Turning to `O=C(O)C(F)(F)C(F)(F)C(F)(F)C(F)(F)C(F)(F)C(F)(F)C(F)(F)C(F)(F)F`, the melting point was 65 °C. Turning to `COc1cc(N)c(C(C)=O)cc1OC`, the melting point was 106 °C. Take `O=[N+]([O-])c1cnc(NC2=NCCN2)s1`: the melting point was above 250 °C. In turn, `CC12NC(Cc3ccccc31)c1ccccc12` (stereo not given) yielded a melting point of 68.8 °C. On to `Cc1ccc2cnn(C)c2n1`, for which the melting point amounted to 184 °C. `Cc1ccc2sc(S(=O)(=O)Cl)cc2c1` yielded a melting point of 83 °C.

With `CCC1C(=CC(=O)CI)N(C)C(C)(C)N1O` (stereo not given), the melting point was in the range of 126 to 127 °C. To `O=C(O)c1ccc2c(c1)OCCOCCOCCOCCOCCO2` belongs 121 to 126 °C. In turn, `C/C(C#Cc1ccccc1)=C/C(C)=N/Nc1ccc([N+](=O)[O-])cc1[N+](=O)[O-]` had a melting point of 210 to 212 °C. For `CC(C)(C)N(NC(=O)c1ccccc1)C(=O)c1cccc(C(F)(F)F)c1`, the melting point worked out at 204 °C. `O=C(c1cccs1)c1noc(-c2ccc(Cl)cc2)c1S(=O)(=O)c1ccccc1` returned a melting point of 125 °C. In the case of `CCN(CC)c1ccc(/C=C2\CC/C(=C\c3ccc(N(CC)CC)cc3)C2=O)cc1`, the melting point was in the range of 186 to 189 °C. The molecule `COc1cccc2cc(C(=O)C3CC(C)(c4ccccc4)C3)oc12` (stereo not given) returned a melting point of 104 to 105 °C. The same measure for `CC1CCC(C(C)C)C(OC(=O)C(Cc2ccccc2)Cc2ccccc2)C1` (stereo not given): 43 °C; for `CC(=O)OC(OC(C)=O)c1cccc([N+](=O)[O-])c1`: 72 °C. The molecule `CCCCCCCCCCCCCCCCCC(=O)OCCCCCCCCCCCCCCCC` yielded a melting point of 57 °C.

`IC(I)=C(I)I` gave a melting point of 187 °C. The molecule `CN(C)CC(O)Cn1c2ccc(Br)cc2c2cc(Br)ccc21` (stereo not given) returned a melting point of 153 to 154 °C. The molecule `Clc1cc2c(Cl)cccc2c(Cl)c1Cl` gave a melting point of 141 °C.

`Cn1c2ccccc2n2c(=O)c3cccnc3c(C#N)c12` registered a melting point of 292 to 293 °C. `NNC(=O)c1ccc(Cl)c(Br)c1` came in with a melting point of 165 to 168 °C. `CC(C)(C)OC(=O)NCc1nnc(S)n1C1CC1` displayed a melting point of 193 to 194 °C. To `OCc1ccc(-c2ccsc2)cc1` belongs 152 to 154 °C. In turn, `CCCCCCCCCc1ccc(OCCOCCO)cc1` had a melting point of 43 °C. `CCOC(=O)c1ccc(NC)c(N)c1` gave a melting point of 87 to 88 °C. `O=Cc1cccc(-c2nccs2)c1` registered a melting point of 67 to 68 °C. `Oc1ccc2c(c1)C13CCCCC1C(C2)N(CCc1ccccc1)CC3` (stereo not given) came in with a melting point of 244 °C. Molecule `N#CCSc1nc(=O)[nH]c2c1CCCC2` showed a melting point of 223 to 225 °C. Take `CCCc1nn(C)c2c(=O)nc(-c3cc(S(=O)(=O)N4CCN(C)CC4)ccc3OCC)[nH]c12`: the melting point was 190 °C. The molecule `CCCCCCNC(=O)COC(=O)c1ccccc1` showed a melting point of 130 °C. The same measure for `O=C(OCc1ccccc1)c1sc(Cl)nc1C(F)(F)F`: 52 °C; for `Nc1cc(=O)oc2ccccc12`: 232 to 234 °C. In turn, `c1csc(P(c2cccs2)c2cccs2)c1` had a melting point of 29 to 30 °C. In turn, `Clc1cccc(Cl)c1CBr` registered a melting point of 56 °C. Molecule `COc1ccc(C(=O)CC(=O)c2ccc(C(C)(C)C)cc2)cc1` displayed a melting point of 83.5 °C. To `O=C(O)C=Cc1cccc(C(F)(F)F)c1` belongs 136 °C.

`CC(C)(C)S(=O)(=O)c1cnc(N2CCCC2)nc1N` registered a melting point of 199 to 201 °C. For `CC(C)OC(=O)OOC(=O)OC(C)C`, the melting point is 10 °C. The molecule `O=[N+]([O-])c1ccc2c(c1)CCN2S(=O)(=O)c1ccccc1` registered a melting point of 128 to 130 °C. Take `Cc1cc(CO)nn1C`: the melting point fell in the range of 50 to 51 °C. Turning to `O=c1on(-c2ccccc2)cc1-c1ccccc1`, the melting point stood at 175 °C. As for `CS(=O)(=O)CN1C(=O)NC(c2ccccc2)(c2ccccc2)C1=O`, the melting point lay in the range of 196 to 197 °C. The same measure for `COc1ccc(C(=O)c2nn(-c3ccccc3)/c(=N\N=Cc3ccccc3Cl)s2)cc1`: 181 °C; for `CCCCOc1ccc(-c2nn(CCC#N)c(=S)[nH]2)cc1`: 115 °C.

Take `Oc1ccc(C(F)(F)F)cn1`: the melting point lay in the range of 145 to 148 °C. The same measure for `CC(C)N=c1cc2n(-c3ccc(Cl)cc3)c3ccccc3nc-2cc1Nc1ccc(Cl)cc1`: 211 °C; for `CC(C)[Si](C(C)C)(C(C)C)n1ccc2c(Br)cccc21`: 62 to 65 °C; for `C#CC`: -103 °C. In the case of `ClC(Br)C(Cl)Br` (stereo not given), the melting point is -26 °C.

On to `C#CC(O)CCC` (stereo not given), for which the melting point is -80 °C. The molecule `CC(CC(C)C(=O)O)C(=O)O` (stereo not given) showed a melting point of 104 to 108 °C. The molecule `O=C(Oc1c(F)c(F)c(F)c(F)c1F)c1ccc(-c2ccccc2)nc1` gave a melting point of 113 to 115 °C. The molecule `CN1C2CC3CC1C(O3)C2O` (stereo not given) displayed a melting point of 108 °C.

`O=C1CN(N=Cc2ccc([N+](=O)[O-])o2)C(=O)N1CN1CCOCC1` registered a melting point of 206 °C. For `COc1c(OC)c(OC(C)=O)c2ccccc2c1OC(C)=O`, the melting point was determined as 138 °C. Turning to `Nc1cc2ccccc2c(Br)n1`, the melting point is 144 to 146 °C.

Take `NS(=O)(=O)c1cc2c(cc1Cl)CN(C1CCCCC1)C2=O`: the melting point is 267 °C.

In turn, `c1coc(CNc2ncnc3[nH]cnc23)c1` had a melting point of 269 to 271 °C.

`CC(C)(C)c1ccc(-c2nnc(-c3ccc(-c4ccccc4)cc3)o2)cc1` returned a melting point of 137 °C. `CC(C)(Oc1ccc(Cl)cc1)C(=O)OCCOC(=O)c1cccnc1` showed a melting point of 100 °C. The same measure for `CSc1sc(C(=O)O)c(-c2cccc(C(F)(F)F)c2)c1C#N`: 232 to 234 °C; for `O=C(CCCl)c1ccc(F)cc1`: 47.5 °C. As to `CCCCCCCCC(=O)OC1CCC2(C)C(=CCC3C2CCC2(C)C(C(C)CCCC(C)C)CCC32)C1` (stereo not given), the melting point lay within 74 to 77 °C. `O=C(NC(NC(=O)c1ccccc1)c1ccccc1OCc1ccccc1Cl)c1ccccc1` gave a melting point of 241 to 243 °C. To `Nc1ccc2ccccc2c1N=Nc1ccccc1` belongs 103 °C; to `O=C(NCO)c1ccccc1`, 95 °C.
